Activity calls are given as the source filed them. No cut-off for these calls is given here.
Tests used:
[1] = molecular target: Protein cereblon/Dual specificity mitogen-activated protein kinase kinase 1 (Homo sapiens) (UniProt Q02750+Q96SW2); assay: Protac activity against CRBN/MEK1 in human HT-29 cells harboring BRAF V600E variant assessed as degradation of MEK1 at 0.3 to 3 uM after 24 hrs by Western blot analysis; type: cell-based
[2] = molecular target: Protein cereblon/Dual specificity mitogen-activated protein kinase kinase 2 (Homo sapiens) (UniProt P36507+Q96SW2); assay: Protac activity against CRBN/MEK2 in human HT-29 cells harboring BRAF V600E variant assessed as degradation of MEK2 at 0.3 to 3 uM after 24 hrs by Western blot analysis; type: cell-based
[3] = molecular target: T1, von Hippel-Lindau disease tumor suppressor/Dual specificity mitogen-activated protein kinase kinase 1 (Homo sapiens) (UniProt Q02750+P40337); assay: Protac activity against VHL/MEK1 in human HT-29 cells harboring BRAF V600E variant assessed as degradation of MEK1 at 0.3 to 3 uM after 24 hrs by Western blot analysis; type: cell-based
[4] = molecular target: T2, von Hippel-Lindau disease tumor suppressor/Dual specificity mitogen-activated protein kinase kinase 2 (Homo sapiens) (UniProt P36507+P40337); assay: Protac activity against VHL/MEK2 in human HT-29 cells harboring BRAF V600E variant assessed as degradation of MEK2 at 0.3 to 3 uM after 24 hrs by Western blot analysis; type: cell-based
SK-MEL-28 [5] = assay: Antiproliferative activity against human SK-MEL-28 cells assessed as reduction in cell growth after 3 days by MTT assay; type: functional
HT-29 [6] = assay: Antiproliferative activity against human HT-29 cells assessed as reduction in cell growth after 3 days by MTT assay; type: functional
UACC-257 = assay: Antiproliferative activity against human UACC257 cells assessed as reduction in cell growth after 3 days by MTT assay; type: functional
[7] = molecular target: T1, von Hippel-Lindau disease tumor suppressor/Dual specificity mitogen-activated protein kinase kinase 1 (Homo sapiens); assay: Protac activity against VHL/MEK1 in human HT-29 cells harboring with BRAF V600E variant assessed as degradation of MEK1 by measuring reduction in MEK1 protein level at 0.1 uM after 10 hrs by LC-MS based Volcano plot analysis; type: cell-based
HT-29 [8] = assay: Inhibition of colony formation in human HT-29 cells at 10 to 100 nM supplemented with fresh medium containing compound every 3 days for 14 days by crystal violet staining based assay; type: functional, cell-based
SK-MEL-28 [9] = assay: Inhibition of colony formation in human SK-MEL-28 cells at 10 to 100 nM supplemented with fresh medium containing compound every 3 days for 14 days by crystal violet staining based assay; type: functional, cell-based
COLO 205 = assay: Antiproliferative activity against human COLO205 cells assessed as reduction in cell growth after 3 days by WST8 assay; type: functional
[10] = molecular target: Dual specificity mitogen-activated protein kinase kinase 2 (Homo sapiens, UniProt P36507); assay: Inhibition of recombinant full length human His-tagged MEK2 expressed in baculovirus expression system using ERK K52R dead variant as substrate preincubated for 20 mins followed by incubation with 33P-ATP for 2 hrs by hotspot kinase assay
[11] = molecular target: T2, von Hippel-Lindau disease tumor suppressor/Dual specificity mitogen-activated protein kinase kinase 2 (Homo sapiens); assay: Protac activity against VHL/MEK2 in human SK-MEL-28 cells harboring with BRAF V600E variant assessed as degradation of MEK2 by measuring MEK2 protein level up to 1 uM after 24 hrs by Western blot analysis; type: cell-based
[12] = molecular target: T2, von Hippel-Lindau disease tumor suppressor/Dual specificity mitogen-activated protein kinase kinase 2 (Homo sapiens); assay: Protac activity against VHL/MEK2 in human HT-29 cells harboring with BRAF V600E variant assessed as degradation of MEK2 by measuring MEK2 protein level up to 1 uM after 24 hrs by Western blot analysis; type: cell-based
[13] = molecular target: Dual specificity mitogen-activated protein kinase kinase 1 (Homo sapiens, UniProt Q02750); assay: Inhibition of recombinant full length human His-tagged MEK1 expressed in baculovirus expression system using ERK K52R dead variant as substrate preincubated for 20 mins followed by incubation with 33P-ATP addition for 2 hrs by hotspot kinase assay
[14] = molecular target: T2, von Hippel-Lindau disease tumor suppressor/Dual specificity mitogen-activated protein kinase kinase 2 (Homo sapiens); assay: Protac activity against VHL/MEK2 in human HT-29 cells harboring with BRAF V600E variant assessed as degradation of MEK2 by measuring reduction in MEK2 protein level at 0.1 uM after 10 hrs by LC-MS based Volcano plot analysis; type: cell-based

T1 sequence (P40337 whole entry, looked up): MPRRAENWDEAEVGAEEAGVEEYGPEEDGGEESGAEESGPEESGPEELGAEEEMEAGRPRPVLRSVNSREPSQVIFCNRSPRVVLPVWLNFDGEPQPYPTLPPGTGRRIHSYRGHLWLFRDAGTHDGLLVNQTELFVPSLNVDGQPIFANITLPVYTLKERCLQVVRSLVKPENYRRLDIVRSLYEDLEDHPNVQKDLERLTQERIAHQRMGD
T1 sequence (Q02750 whole entry, looked up): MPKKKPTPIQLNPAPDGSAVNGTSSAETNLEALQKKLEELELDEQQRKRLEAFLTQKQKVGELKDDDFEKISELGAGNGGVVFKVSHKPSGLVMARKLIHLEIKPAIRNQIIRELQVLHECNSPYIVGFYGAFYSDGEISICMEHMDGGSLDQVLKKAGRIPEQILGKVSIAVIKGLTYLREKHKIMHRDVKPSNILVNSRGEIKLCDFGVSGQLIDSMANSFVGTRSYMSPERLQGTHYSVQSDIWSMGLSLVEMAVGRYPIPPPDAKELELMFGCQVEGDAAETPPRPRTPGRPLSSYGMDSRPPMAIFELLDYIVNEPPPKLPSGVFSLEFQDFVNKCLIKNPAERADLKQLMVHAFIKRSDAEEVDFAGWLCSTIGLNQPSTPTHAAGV
T2 sequence (P36507 whole entry, looked up): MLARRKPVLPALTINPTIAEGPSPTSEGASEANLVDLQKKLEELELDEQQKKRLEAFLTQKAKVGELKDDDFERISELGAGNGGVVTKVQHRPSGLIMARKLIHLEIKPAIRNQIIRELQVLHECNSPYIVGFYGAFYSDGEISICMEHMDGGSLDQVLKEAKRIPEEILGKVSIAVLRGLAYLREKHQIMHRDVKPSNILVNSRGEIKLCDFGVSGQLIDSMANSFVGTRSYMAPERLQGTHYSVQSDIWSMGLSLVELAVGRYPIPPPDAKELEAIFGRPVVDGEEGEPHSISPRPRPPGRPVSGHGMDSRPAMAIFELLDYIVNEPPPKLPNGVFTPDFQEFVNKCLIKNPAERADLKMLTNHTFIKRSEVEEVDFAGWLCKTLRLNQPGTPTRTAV
T2 sequence (P40337 whole entry, looked up): as the sequence (P40337 whole entry, looked up) above
Protein cereblon/Dual specificity mitogen-activated protein kinase kinase 1 (Homo sapiens), sequence (Q02750 whole entry, looked up): as the sequence (Q02750 whole entry, looked up) above
Protein cereblon/Dual specificity mitogen-activated protein kinase kinase 1 (Homo sapiens), sequence (Q96SW2 whole entry, looked up): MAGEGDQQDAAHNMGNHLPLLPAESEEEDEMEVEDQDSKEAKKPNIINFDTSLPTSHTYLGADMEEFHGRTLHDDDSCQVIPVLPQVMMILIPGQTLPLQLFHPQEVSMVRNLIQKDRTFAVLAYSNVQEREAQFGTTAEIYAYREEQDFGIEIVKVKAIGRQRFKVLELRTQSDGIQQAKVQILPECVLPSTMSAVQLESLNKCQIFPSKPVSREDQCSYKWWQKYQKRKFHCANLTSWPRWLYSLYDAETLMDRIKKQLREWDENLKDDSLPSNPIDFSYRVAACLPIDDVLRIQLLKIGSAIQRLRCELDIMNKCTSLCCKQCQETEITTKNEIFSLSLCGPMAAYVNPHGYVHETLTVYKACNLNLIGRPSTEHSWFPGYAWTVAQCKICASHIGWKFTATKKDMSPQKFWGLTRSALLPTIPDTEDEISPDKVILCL
Protein cereblon/Dual specificity mitogen-activated protein kinase kinase 2 (Homo sapiens), sequence (P36507 whole entry, looked up): as the sequence (P36507 whole entry, looked up) above
Protein cereblon/Dual specificity mitogen-activated protein kinase kinase 2 (Homo sapiens), sequence (Q96SW2 whole entry, looked up): as the sequence (Q96SW2 whole entry, looked up) above
Dual specificity mitogen-activated protein kinase kinase 1, sequence (Q02750 whole entry): as the sequence (Q02750 whole entry, looked up) above
Dual specificity mitogen-activated protein kinase kinase 2, sequence (P36507 whole entry): as the sequence (P36507 whole entry, looked up) above

In the case of `O=C1CCC(N2C(=O)c3cccc(NCCNCCCONC(=O)c4ccc(F)c(F)c4Nc4ccc(I)cc4F)c3C2=O)C(=O)N1` (stereo not given), the Activity [1] is reported as “inactive” and the Activity [2] is reported as “inactive”.

For `Cc1ncsc1-c1ccc(CNC(=O)[C@@H]2C[C@@H](O)CN2C(=O)[C@@H](NC(=O)CCCCCCNCCCONC(=O)c2ccc(F)c(F)c2Nc2ccc(I)cc2F)C(C)(C)C)cc1`, the Activity [3] was “Active” and the Activity [4] was “Active”.

`Cc1ncsc1-c1ccc([C@H](C)NC(=O)[C@H]2C[C@H](O)CN2C(=O)[C@@H](NC(=O)CCCCCCCCCCNCCCONC(=O)c2ccc(F)c(F)c2Nc2ccc(I)cc2F)C(C)(C)C)cc1` was tested, and the GI50 (SK-MEL-28 [5]) was “inactive”, the GI50 (HT-29 [6]) was “inactive” and the GI50 (UACC-257) was “inactive”. The Activity [7] was “inactive”, the inhibition (HT-29 [8]) was “inactive” and the inhibition (SK-MEL-28 [9]) was “inactive”. For the same compound, the GI50 (COLO 205) was “inactive”, the IC50 [10] was 1500 nM and the Activity [11] was “inactive”. For the same compound, the Activity [12] was “inactive”, the IC50 [13] was 1600 nM and the Activity [14] was “inactive”.

With `Cc1ncsc1-c1ccc(CNC(=O)[C@@H]2C[C@@H](O)CN2C(=O)[C@@H](NC(=O)CCCCCCCCCCNCCCONC(=O)c2ccc(F)c(F)c2Nc2ccc(I)cc2F)C(C)(C)C)cc1` the Activity [3] was “Active” and the Activity [4] was “Active”.

`Cc1ncsc1-c1ccc(CNC(=O)[C@@H]2C[C@@H](O)CN2C(=O)[C@@H](NC(=O)COCCOCCOCCNCCCONC(=O)c2ccc(F)c(F)c2Nc2ccc(I)cc2F)C(C)(C)C)cc1` was tested, and the Activity [3] was “Active” and the Activity [4] was “Active”.

`O=C(NOC[C@H](O)CO)c1ccc(F)c(F)c1Nc1ccc(I)cc1F` [MIRDAMETINIB] was tested, and the GI50 (SK-MEL-28 [5]; SK-MEL-28, 72 h) was 2.9 nM, the GI50 (HT-29 [6]; HT-29, 72 h) was 3.1 nM and the GI50 (UACC-257; UACC-257, 72 h) was 0.2 to 4.2 nM. For the same compound, the inhibition (HT-29 [8]) was “Active”, the inhibition (SK-MEL-28 [9]) was “Active” and the GI50 (COLO 205; COLO 205, 72 h) was 0.2 to 4.2 nM. The Activity [11] was “inactive” and the Activity [12] was “inactive”.

With `O=C1CCC(N2C(=O)c3cccc(NCCOCCNCCCONC(=O)c4ccc(F)c(F)c4Nc4ccc(I)cc4F)c3C2=O)C(=O)N1` (stereo not given) the Activity [1] was “inactive” and the Activity [2] was “inactive”.

Source: ChEMBL document CHEMBL4321854, “Discovery of a First-in-Class Mitogen-Activated Protein Kinase Kinase 1/2 Degrader” (J Med Chem, 2019)
